Experiments:
mouse deodenum = details: 0.1 % of hydrogen peroxide; cited from earlier work
human cells = details: cited from earlier work
Neurospora crassa = details: cited from earlier work
[1] = system: Salmonella typhimurium strain TA 100; experiment: Mutagenicity / antimutagenic effect, preincubation Salmonella (Ames) test; details: Salmonella typhimurium strain TA 100 (histidine-requiring), 48 h, pH 7.4
Description: • I) Measuring mutagenicity and the antimutagenic effect • (i) Method: • The preincubation method described in Sugimura & Nagao; Chemical Mutagens, Vol. 6, p. 41, 1981 was used. • (ii) Microorganism: • Histidine-requiring Salmonella typhimurium strain TA 100 (hereunder S. TA 100) was used. • (iii) Preparation of samples: • (a) Instant coffee: • Instant coffee powder was dissolved in distilled water. Predetermined amounts of catalase were also dissolved in distilled water, and 50 µl of each solution was mixed with an equal amount of the aqueous coffee solution. • (b) Regular coffee: • Roasted and ground coffee beans (20 g) were extracted with hot distilled water (250 ml), and the extract was filtered through coffee filter paper No. 12 manufactured by Kalita Co., Ltd. The extract was freeze-dried, and after measuring the weight of the dry product, it was dissolved in distilled water. Predetermined amounts of catalase were also dissolved in distilled water, and 50 pl of each solution was mixed with an equal amount of the aqueous solution of coffee concentrate. • (c) Catalase: • A pure isolate from calf liver as manufactured by P-L Biochemicals, Inc. was used. […] After incubation at 37°C for 48 hours, the number of colonies forming on the plate was counted as revertants.

OO [hydrogen peroxide]
carcinogenicity (mouse deodenum): cause malignant tumors
clastogenic to human cells (human cells): clastogenic
mutagenic to Neurospora crassa (Neurospora crassa): mutagenic
mutagenicity to S. TA 100 [1]: 160 revertants/108 survivors/pmole
